Data on three molecules can be found in ChEMBL document CHEMBL2046362, “Synthesis and evaluation of novel potent HCV NS5A inhibitors” (Bioorg Med Chem Lett, 2012).

What is called EC90 is the concentration needed for an effect of 90%. What is called CC50 is the concentration giving 50% cytotoxicity. What is called IC90 is the concentration at which the effect reaches the 90% level. Broadly, the IC50 is the concentration at which inhibition is half-maximal.

Each structure is given as a SMILES string.

Series [1] deals with T1, Nonstructural protein 5A (Hepatitis C virus) (UniProt Q5L478).
T1 sequence (whole entry): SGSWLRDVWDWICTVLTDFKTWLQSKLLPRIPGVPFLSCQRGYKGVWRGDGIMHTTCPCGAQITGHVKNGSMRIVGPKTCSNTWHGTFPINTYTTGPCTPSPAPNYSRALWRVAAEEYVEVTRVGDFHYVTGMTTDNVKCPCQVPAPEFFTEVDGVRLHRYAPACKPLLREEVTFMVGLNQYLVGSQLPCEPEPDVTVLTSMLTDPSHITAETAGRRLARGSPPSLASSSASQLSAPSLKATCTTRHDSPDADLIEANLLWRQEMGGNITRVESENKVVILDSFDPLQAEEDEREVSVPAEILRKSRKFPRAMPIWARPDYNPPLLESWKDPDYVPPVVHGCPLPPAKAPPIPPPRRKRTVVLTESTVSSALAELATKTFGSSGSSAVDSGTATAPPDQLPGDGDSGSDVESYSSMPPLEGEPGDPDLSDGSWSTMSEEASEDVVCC
As to the kind of experiment: Inhibition of HCV NS5A assessed as antiviral activity against HCV by viral replicon assay. The following applies: Hepacivirus hominis. (In general: In antiviral work, replicon cells carry a viral genome segment that copies itself.)

Series [2] is described as follows: Cytotoxicity against human HuH7 cells. The series is classed as cell-based, Huh-7.
A further series deals with PBMC. As to the kind of experiment: (§1) Cytotoxicity against human PBMC cells. Type of series: cell-based. The settings on record: pbmc.
Another series relates to CCRF-CEM. As to the kind of experiment: Cytotoxicity against human CEM cells. Type of series: cell-based.
The subject of the next series is Vero. As to the kind of experiment: Cytotoxicity against african green monkey Vero cells. The series is classed as cell-based. The following applies: chlorocebus sabaeus.
Series [3] is described as follows: Chemical stability in phosphate buffer assessed as compound degradation at pH 7 at 20 degC measured between 2 to 48 hrs during 48 hrs incubation period. Type of series: physicochemical. The following applies: pH 7, 48 h.
For series [4], the system named is Liver microsomes. As to the kind of experiment: Half life in human liver microsomes at 1 uM measured 5 to 60 mins post dose by LC-MS/MS nethod. The series is classed as ADME, Microsome. In general terms: Microsomes from liver hold many membrane-bound enzymes, among them those of drug oxidation.
For series [5], the system named is Liver microsomes. As to the kind of experiment: Intrinsic clearance in human liver microsomes assessed per mg protein at 1 uM measured 5 to 60 mins post dose by LC-MS/MS nethod. The series is classed as ADME, Microsome.
Another series has as its target T2, CYP1A2 (Homo sapiens, UniProt P05177).
T2 sequence (P05177 whole entry): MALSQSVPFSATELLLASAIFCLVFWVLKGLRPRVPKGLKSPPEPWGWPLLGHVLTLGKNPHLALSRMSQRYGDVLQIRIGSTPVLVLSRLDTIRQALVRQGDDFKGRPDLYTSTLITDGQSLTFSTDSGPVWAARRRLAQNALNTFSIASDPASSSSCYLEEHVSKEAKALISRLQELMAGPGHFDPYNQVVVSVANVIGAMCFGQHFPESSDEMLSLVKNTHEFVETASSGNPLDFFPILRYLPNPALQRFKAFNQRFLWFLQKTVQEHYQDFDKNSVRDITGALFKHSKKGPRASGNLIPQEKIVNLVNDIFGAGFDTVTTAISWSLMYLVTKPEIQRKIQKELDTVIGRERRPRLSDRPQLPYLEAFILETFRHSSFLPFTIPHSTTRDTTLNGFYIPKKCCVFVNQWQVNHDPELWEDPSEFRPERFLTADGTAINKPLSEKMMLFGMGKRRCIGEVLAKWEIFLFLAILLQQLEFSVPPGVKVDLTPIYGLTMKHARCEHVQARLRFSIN
As to the kind of experiment: (§2) Inhibition of CYP1A2. The series is classed as ADME.

The next series addresses T3, Cytochrome P450 1A2 (Homo sapiens, UniProt P05177).
T3 sequence (P05177 whole entry): T2 sequence (P05177 whole entry)
Described as §2. Type of series: ADME.

For a further series, the target named is CYP3A4 (Homo sapiens, UniProt P08684). As to the kind of experiment: (§3) Inhibition of CYP3A4. Type of series: ADME.
Sequence of CYP3A4 (P08684 whole entry): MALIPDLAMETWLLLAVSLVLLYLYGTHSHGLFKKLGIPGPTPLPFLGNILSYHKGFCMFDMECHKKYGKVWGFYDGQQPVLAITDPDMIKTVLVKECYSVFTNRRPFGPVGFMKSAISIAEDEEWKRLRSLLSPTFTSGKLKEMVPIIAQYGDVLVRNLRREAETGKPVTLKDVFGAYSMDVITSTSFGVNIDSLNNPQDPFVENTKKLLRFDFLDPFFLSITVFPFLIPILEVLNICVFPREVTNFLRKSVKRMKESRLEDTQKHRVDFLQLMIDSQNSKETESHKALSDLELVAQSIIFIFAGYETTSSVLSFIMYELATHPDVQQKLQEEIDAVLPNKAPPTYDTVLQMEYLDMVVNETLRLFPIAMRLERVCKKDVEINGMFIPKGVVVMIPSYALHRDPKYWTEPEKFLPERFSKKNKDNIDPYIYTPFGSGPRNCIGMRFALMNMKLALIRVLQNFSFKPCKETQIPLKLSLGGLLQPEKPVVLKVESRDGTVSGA
Another series has as its target Cytochrome P450 3A4 (Homo sapiens, UniProt P08684). The description is as §3. The series is classed as ADME.
A further series deals with CYP2D6 (Homo sapiens, UniProt P10635). As to the kind of experiment: (§4) Inhibition of CYP2D6. Type of series: ADME.
Sequence of CYP2D6 (P10635 whole entry): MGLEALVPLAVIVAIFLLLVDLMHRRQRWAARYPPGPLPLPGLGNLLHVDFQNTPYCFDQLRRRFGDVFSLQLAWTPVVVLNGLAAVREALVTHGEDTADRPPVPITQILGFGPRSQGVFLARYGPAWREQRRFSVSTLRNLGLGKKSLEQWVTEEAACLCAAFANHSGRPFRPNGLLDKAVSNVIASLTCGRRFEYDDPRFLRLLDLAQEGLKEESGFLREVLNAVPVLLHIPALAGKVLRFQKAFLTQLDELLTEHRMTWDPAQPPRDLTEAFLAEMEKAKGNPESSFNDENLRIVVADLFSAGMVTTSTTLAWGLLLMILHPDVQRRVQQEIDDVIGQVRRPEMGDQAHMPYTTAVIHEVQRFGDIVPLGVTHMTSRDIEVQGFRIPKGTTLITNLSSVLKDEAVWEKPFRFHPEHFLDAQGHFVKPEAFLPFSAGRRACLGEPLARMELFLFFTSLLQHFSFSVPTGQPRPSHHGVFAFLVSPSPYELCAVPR
Another series addresses Cytochrome P450 2D6 (Homo sapiens, UniProt P10635). The series is described as §4. Type of series: ADME.
A further series has as its target CYP2C9 (Homo sapiens, UniProt P11712). As to the kind of experiment: (§5) Inhibition of CYP2C9. The series is classed as ADME.
The next series concerns the target Cytochrome P450 2C9 (Homo sapiens, UniProt P11712). The series is described as §5. The series is classed as ADME.
The nature of series [6]: Chemical stability in phosphate buffer assessed as compound degradation at pH 3 at 20 degC measured between 1 to 48 hrs during 48 hrs incubation period. The settings on record: pH 3, 48 h.
A short description of series [7]: as §1. Type of series: cell-based. The settings on record: PBMC cells.
Series [8] in a line: Cytotoxicity against human primary lymphocytes. Type of series: cell-based. The settings on record: lymphocyte.

Sequence of Cytochrome P450 2C9 (P11712 whole entry): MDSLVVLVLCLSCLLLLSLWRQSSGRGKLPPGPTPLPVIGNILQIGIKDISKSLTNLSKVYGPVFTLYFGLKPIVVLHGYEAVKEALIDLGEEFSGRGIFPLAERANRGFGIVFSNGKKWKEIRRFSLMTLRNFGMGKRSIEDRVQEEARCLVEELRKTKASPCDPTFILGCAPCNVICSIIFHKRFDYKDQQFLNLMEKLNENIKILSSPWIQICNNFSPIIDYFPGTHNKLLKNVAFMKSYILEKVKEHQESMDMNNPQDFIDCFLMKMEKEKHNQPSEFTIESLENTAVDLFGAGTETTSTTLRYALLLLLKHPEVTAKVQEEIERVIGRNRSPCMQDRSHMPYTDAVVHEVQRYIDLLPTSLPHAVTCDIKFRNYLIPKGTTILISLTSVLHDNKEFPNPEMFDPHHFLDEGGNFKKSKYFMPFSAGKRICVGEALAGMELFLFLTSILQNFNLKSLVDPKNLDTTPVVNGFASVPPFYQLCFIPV
Sequence of CYP2C9 (P11712 whole entry): as above
Sequence of Cytochrome P450 2D6 (P10635 whole entry): as the sequence (P10635 whole entry) above
Sequence of Cytochrome P450 3A4 (P08684 whole entry): as the sequence (P08684 whole entry) above

Turning to `COC(=O)N[C@H](C(=O)N1CCC[C@H]1c1nc(Cl)c(-c2ccc(-c3ccc(-c4[nH]c([C@@H]5CCCN5C(=O)[C@@H](NC(=O)OC)C(C)C)nc4Cl)cc3)cc2)[nH]1)C(C)C`, in series [1], the EC90 was 0.0114 nM. Moreover, the cytotoxic concentration (CC50) is over 1 µM in series [2], 2.8 µM in the series with PBMC, 12 µM in the series on CCRF-CEM and 100 µM in the series on Vero. Also, the Stability result in [3] and in series [6] was “Stable” each time. The t1/2 in the series on Liver microsomes [4] stood at 1.992 h. For the same molecule, the CLint with Liver microsomes [5] came to 5.8 µL/min/mg. Further, the 90% effect concentration (IC90) against CYP1A2, against CYP3A4, at CYP2D6 and at CYP2C9 was over 100 µM throughout. In addition, the IC50 against Cytochrome P450 1A2 is over 100 µM; against Cytochrome P450 3A4 it was 13.8 µM; at Cytochrome P450 2D6 it was over 100 µM; against Cytochrome P450 2C9 it was 81.6 µM.

As to `COC(=O)N[C@H](C(=O)N1C[C@H](N=[N+]=[N-])C[C@H]1c1ncc(-c2ccc(-c3ccc(-c4cnc([C@@H]5C[C@@H](N=[N+]=[N-])CN5C(=O)[C@@H](NC(=O)OC)C(C)C)[nH]4)cc3)cc2)[nH]1)C(C)C`, the concentration for an effect of 90% (EC90) in [1] was 0.0542 nM. In addition, the half-maximal cytotoxic concentration (CC50) in series [2] is over 1 µM; in [7], over 100 µM.

Take `COC(=O)N[C@H](C(=O)N1CCC[C@H]1c1nc(F)c(-c2ccc(-c3ccc(-c4[nH]c([C@@H]5CCCN5C(=O)[C@@H](NC(=O)OC)C(C)C)nc4F)cc3)cc2)[nH]1)C(C)C`: the EC90 in series [1] was 0.0212 nM. For the same molecule, the half-maximal cytotoxic concentration (CC50) in series [2] is over 1 µM; with PBMC, 19 µM; in the series with CCRF-CEM it was 3 µM; with Vero, over 100 µM. Further, the Activity result in series [8] was “Toxic”. For the same molecule, the Stability entry in series [3] and in [6] was “Stable” each time. This molecule also registered a t1/2 in the series on Liver microsomes [4] of 2.063 h. This molecule also returned a CLint in the series on Liver microsomes [5] of 5.6 µL/min/mg. In addition, the IC90 on CYP1A2, against CYP3A4, at CYP2D6 and against CYP2C9 was over 100 µM throughout. Moreover, the IC50 against Cytochrome P450 1A2 was over 100 µM; against Cytochrome P450 3A4, 3.1 µM; against Cytochrome P450 2D6, over 100 µM; at Cytochrome P450 2C9, over 100 µM.
